Columns and labels:
[1] = target: T1, pure human PPP2R1A protein (Homo sapiens, UniProt P30153); experiment: Gel-based ABPP, competition against IAyne labeling; format: binding; settings: for IC50: 30 min at 37° C. pre-treatment, IAyne labeling; for competition against IAyne labeling of pure human PPP2R1A: 30 min pre-incubation
T1 construct: purchased Origene
Procedure: Gel-based ABPP methods were performed using the methods described in “Chem Biol 22(10), 1394-1405 (2015)” by Medina-Cleghorn D., et al. Recombinant pure human proteins were purchased from Origene. Pure proteins were pre-treated with DMSO, Withaferin A, or acrylamide or chloroacetamide compounds (e.g., DKM 2-90 or JNS 1-40) for 30 minutes at 37° C. in an incubation volume of PBS (50 μL), and were subsequently treated with IAyne (10 μM final concentration) for 30 minutes at room temperature. CuAAC was performed to append rhodamine-azide onto IAyne probe-labeled proteins. The samples were separated by SDS/PAGE and scanned using a ChemiDoc MP. Inhibition of target labeling was assessed by densitometry using ImageStudio Light software.

C377 of PPP2R1A = target: T2, C377 of PPP2R1A (Homo sapiens, UniProt P30153); experiment: Competitive isoTOP-ABPP in 231MFP proteomes in vitro; format: binding
T2 construct: pre-incubating withaferin A (10 μM) for 30 min in 231MFP breast cancer cell proteomes; endogenous in cells; host or cells: 231MFP breast cancer cells (MDA-MB-231 derived)
Procedure: IsoTOP-ABPP studies were performed using the methods described in “Nature 534(7608), 570-574 (2016)” by Backus K. M., et al. and “Nature 468(7325), 790-795 (2010)” by Weerapana E., et al. Proteome samples diluted in PBS were treated with Withaferin A or vehicle for 30 minutes at 37° C. Then, IAyne (iodoacetamide-alkyne) labeling was performed for 1 hour at room temperature. CuAAC was used by sequential addition of tris(2-carboxyethyl)phosphine (1 mM), tris[(1-benzyl-1H-1,2,3-triazol-4-yl)methyl]amine (34 μM), copper (II) sulfate (1 mM), and biotin-linker-azide where the linker was functionalized with a TEV protease recognition sequence along with an isotopically light or heavy valine for treatment of control or treated proteome, respectively. After click reactions, proteomes were precipitated by centrifugation at 6500×g, washed in ice-cold methanol, combined in a 1:1 control/treated ratio, washed again, then denatured and re-solubilized by heating in 1.2% SDS/PBS to 80° C. for 5 minutes. Insoluble components were precipitated by centrifugation at 6500×g and soluble proteome was diluted in 0.2% SDS/PBS (5 ml). Labeled proteins were bound to avidin-agarose beads (170 μl re-suspended beads/sample) while rotating overnight at 4° C. Bead-linked proteins were enriched by washing three times each in PBS and water, then re-suspended in urea/PBS (6 M), reduced in TCEP (1 mM), alkylated with iodoacetamide (18 mM), then washed and re-suspended in urea/PBS (2 M), and finally trypsinized overnight with 0.5 μg/μl sequencing grade trypsin. Tryptic peptides were eluted off. Beads were washed in PBS (3 times) and water (3 times), washed in TEV buffer solution (water, TEV buffer, 100 μM dithiothreitol), and re-suspended in buffer with Ac-TEV protease and then incubated overnight. Peptides were diluted in water, acidified with formic acid (1.2 M), and prepared for analysis.
Peptides from all proteomic experiments were pressure-loaded onto an Agilent 600 series RP-HPLC system equipped with a capillary tubing (250 mm) packed with Aqua C18 reverse-phase resin (4 cm). The system was previously equilibrated with a gradient (0% B to 100% B over 10 minutes, 100% B for 5 minutes, then 0% B for 5 minutes; buffer A: 95:5 water:acetonitrile, 0.1% formic acid; buffer B: 80:20 acetonitrile:water, 0.1% formic acid). The samples were then attached using a MicroTee PEEK 360 μm fitting to a laser pulled column (13 cm) packed with Aqua C18 reverse-phase resin (10 cm) and strong-cation exchange resin (3 cm) for isoTOP-ABPP studies. Samples were analyzed using an Q Exactive Plus mass spectrometer using a 5-step Multidimensional Protein Identification Technology (MudPIT) program. […]

[2] = test system: cysteines profiled in 231MFP cells; experiment: isoTOP-ABPP proteome-wide selectivity; format: binding; settings: 100 μM, out of >1000 cysteines profiled
Procedure: IsoTOP-ABPP studies were performed using the methods described in “Nature 534(7608), 570-574 (2016)” by Backus K. M., et al. and “Nature 468(7325), 790-795 (2010)” by Weerapana E., et al. Proteome samples diluted in PBS were treated with Withaferin A or vehicle for 30 minutes at 37° C. Then, IAyne (iodoacetamide-alkyne) labeling was performed for 1 hour at room temperature. CuAAC was used by sequential addition of tris(2-carboxyethyl)phosphine (1 mM), tris[(1-benzyl-1H-1,2,3-triazol-4-yl)methyl]amine (34 μM), copper (II) sulfate (1 mM), and biotin-linker-azide where the linker was functionalized with a TEV protease recognition sequence along with an isotopically light or heavy valine for treatment of control or treated proteome, respectively. After click reactions, proteomes were precipitated by centrifugation at 6500×g, washed in ice-cold methanol, combined in a 1:1 control/treated ratio, washed again, then denatured and re-solubilized by heating in 1.2% SDS/PBS to 80° C. for 5 minutes. […]
Peptides from all proteomic experiments were pressure-loaded onto an Agilent 600 series RP-HPLC system equipped with a capillary tubing (250 mm) packed with Aqua C18 reverse-phase resin (4 cm). […] Samples were analyzed using an Q Exactive Plus mass spectrometer using a 5-step Multidimensional Protein Identification Technology (MudPIT) program. […]

[3] = test system: 231MFP breast cancer cells; experiment: 231MFP serum-free cell survival (Hoechst staining); format: cell-based; settings: 48 h

T1 sequence (P30153 whole entry): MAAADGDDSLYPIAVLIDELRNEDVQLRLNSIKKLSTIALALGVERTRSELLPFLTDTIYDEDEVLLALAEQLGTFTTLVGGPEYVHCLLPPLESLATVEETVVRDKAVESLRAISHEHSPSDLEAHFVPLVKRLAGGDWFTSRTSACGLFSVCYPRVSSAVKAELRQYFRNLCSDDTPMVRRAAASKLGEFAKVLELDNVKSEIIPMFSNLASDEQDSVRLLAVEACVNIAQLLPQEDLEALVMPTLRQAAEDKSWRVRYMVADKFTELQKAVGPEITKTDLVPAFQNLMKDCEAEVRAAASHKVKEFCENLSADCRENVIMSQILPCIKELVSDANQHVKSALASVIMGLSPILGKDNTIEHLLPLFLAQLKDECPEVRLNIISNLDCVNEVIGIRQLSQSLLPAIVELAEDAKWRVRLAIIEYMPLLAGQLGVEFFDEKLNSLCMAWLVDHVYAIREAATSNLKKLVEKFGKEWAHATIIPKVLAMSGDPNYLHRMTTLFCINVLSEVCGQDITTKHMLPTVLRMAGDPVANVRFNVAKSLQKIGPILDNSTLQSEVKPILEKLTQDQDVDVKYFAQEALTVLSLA
T2 sequence (P30153 whole entry): as above

SMILES	IC50 [1] [µM]	competition against IAyne labeling of pure human PPP2R1A ([1]; gel-based ABPP)	isotopically light to heavy ratio, C377 of PPP2R1A (C377 of PPP2R1A; 100 μM, 30 min pre-treatment)	total sites showing >5 light to heavy ratio [2]	improved potency towards PPP2R1A compared to DKM 2-90 ([1]; gel-based ABPP) [fold]	serum-free cell survival ([3]; 100 μM)	isotopically light to heavy ratio, C377 of PPP2R1A (C377 of PPP2R1A; 10 μM, 30 min pre-incubation, IAyne 100 μM)	serum-free cell survival ([3]; 10 μM)
O=C(CCl)Nc1ccc2c(c1)OCCO2 [DKM 2-90, 2-Chloro-N-(2,3-dihydrobenzo[β][1,4]dioxin-6-yl)acetamide]	10	confirming the competition	quite selectively targeted C377 of PPP2R1A	5	–	–	–	–
O=C(CCl)N(Cc1ccccc1)c1ccc2c(c1)OCCO2 [JNS 1-40, N-benzyl-2-chloro-N-(2,3-dihydrobenzo[b][1,4]dioxin-6-yl)acetamide]	0.63	–	> 5	only target	16	impaired	–	–
CC1=C(CO)C(=O)O[C@@H]([C@@H](C)[C@H]2CC[C@H]3[C@@H]4C[C@H]5O[C@]56[C@@H](O)C=CC(=O)[C@]6(C)[C@H]4CC[C@]23C)C1 [withaferin A, reference compound]	–	full competition	–	–	–	–	> 5	impairs

Source: patent publication US20200054651A1, “COMPOSITIONS AND METHODS FOR MODULATING PPP2R1A” (The Regents of the University of California, priority 2017, published 2020)
